target: human APJ receptor (Homo sapiens (Human), UniProt P35414); test: [35S]GTPγS binding assay on membranes from CHO cells stably expressing human APJ receptor; assay type: biochemical; settings: [35S]GTPγS SPA, read-out: Activity hAPJ SPA EC50 IP
Procedure, shortened: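 Membranes from CHO cells stably expressing FLAG-tagged human APJ were incubated with [35S]GTPγS in buffer with optimized GDP, MgCl2 and NaCl, 90 min at RT. EC50 values derived by non-linear regression, averaged over several independent experiments.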

Chain of human APJ receptor (P35414 whole entry): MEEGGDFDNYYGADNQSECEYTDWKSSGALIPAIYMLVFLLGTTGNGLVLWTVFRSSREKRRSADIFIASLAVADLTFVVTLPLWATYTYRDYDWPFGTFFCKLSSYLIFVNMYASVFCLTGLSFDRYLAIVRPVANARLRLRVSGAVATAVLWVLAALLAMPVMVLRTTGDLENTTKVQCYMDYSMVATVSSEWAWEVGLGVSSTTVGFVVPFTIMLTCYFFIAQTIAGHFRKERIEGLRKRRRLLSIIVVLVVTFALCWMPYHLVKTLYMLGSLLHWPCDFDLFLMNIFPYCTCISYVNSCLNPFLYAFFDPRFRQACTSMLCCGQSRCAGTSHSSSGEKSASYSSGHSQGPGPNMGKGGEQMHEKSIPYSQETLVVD

Compound	EC50 [nM]
COc1ncnc(OC)c1-n1c(NS(=O)(=O)[C@@H](C)[C@H](OC)c2ncc(Cl)cn2)nnc1[C@H]1CC[C@@H](C(F)(F)F)CC1 (single isomer, unassigned) [Example 172.0, (1R,2S)-1-(5-chloropyrimidin-2-yl)-N-(4-(4,6-dimethoxypyrimidin-5-yl)-5-((1s,4R)-4-(trifluoromethyl)cyclohexyl)-4H-1,2,4-triazol-3-yl)-1-methoxypropane-2-sulfonamide or (1R,2S)-1-(5-chloropyrimidin-2-yl)-N-(4-(4,6-dimethoxypyrimidin-5-yl)-5-((1r,4S)-4-(trifluoromethyl)cyclohexyl)-4H-1,2,4-triazol-3-yl)-1-methoxypropane-2-sulfonamide]	370
(2S,3R)-3-(5-chloropyrimidin-2-yl)-N-(5-((R)-2,2-difluorocyclopropyl)-4-(2,6-dimethoxyphenyl)-4H-1,2,4-triazol-3-yl)butane-2-sulfonamide or (2S,3R)-3-(5-chloropyrimidin-2-yl)-N-(5-((S)-2,2-difluorocyclopropyl)-4-(2,6-dimethoxyphenyl)-4H-1,2,4-triazol-3-yl)butane-2-sulfonamide [Example 221.0]	18
COc1cccc(OC)c1-n1c(NS(=O)(=O)[C@@H](C)[C@H](OC)c2ncc(Cl)cn2)nnc1[C@H]1CC(=O)C1(C)C (single isomer, unassigned) [Example 197.0, (1R,2S)-1-(5-chloropyrimidin-2-yl)-N-(4-(2,6-dimethoxyphenyl)-5-((R)-2,2-dimethyl-3-oxocyclobutyl)-4H-1,2,4-triazol-3-yl)-1-methoxypropane-2-sulfonamide or (1R,2S)-1-(5-chloropyrimidin-2-yl)-N-(4-(2,6-dimethoxyphenyl)-5-((S)-2,2-dimethyl-3-oxocyclobutyl)-4H-1,2,4-triazol-3-yl)-1-methoxypropane-2-sulfonamide]	870
COc1ncnc(OC)c1-n1c(NS(=O)(=O)[C@@H](C)[C@H](OC)c2ncc(C)cn2)nnc1C1CC2(CC2)C1 [Example 201.0]	11
COc1cccc(OC)c1-n1c(NS(=O)(=O)[C@@H](C)[C@H](OC)c2ncc(Cl)cn2)nnc1C1CCC1C#N (single isomer, unassigned) [Example 170.0, (1R,2S)-1-(5-chloropyrimidin-2-yl)-N-(5-((1R,2R)-2-cyanocyclobutyl)-4-(2,6-dimethoxyphenyl)-4H-1,2,4-triazol-3-yl)-1-methoxypropane-2-sulfonamide or (1R,2S)-1-(5-chloropyrimidin-2-yl)-N-(5-((1R,2R)-2-cyanocyclobutyl)-4-(2,6-dimethoxyphenyl)-4H-1,2,4-triazol-3-yl)-1-methoxypropane-2-sulfonamide]	18
COc1cccc(OC)c1-n1c(NS(=O)(=O)[C@@H](C)[C@@H](OC(C)C)c2ncc(C)cn2)nnc1C1CCC1 [Example 142.0]	5.1
COc1cccc(OC)c1-n1c(NS(=O)(=O)[C@@H](C)[C@H](OC)c2ncc(Cl)cn2)nnc1[C@H]1CC[C@H](OC)C1 (single isomer, unassigned) [Example 215.0]	66
COc1ncnc(OC)c1-n1c(NS(=O)(=O)[C@@H](C)[C@H](OC)c2ncc(Cl)cn2)nnc1[C@H]1CC[C@H]1C (single isomer, unassigned) [Example 188.0, (1R,2S)-1-(5-chloropyrimidin-2-yl)-N-(4-(4,6-dimethoxypyrimidin-5-yl)-5-((1S,2R)-2-methylcyclobutyl)-4H-1,2,4-triazol-3-yl)-1-methoxypropane-2-sulfonamide or (1R,2S)-1-(5-chloropyrimidin-2-yl)-N-(4-(4,6-dimethoxypyrimidin-5-yl)-5-((1R,2S)-2-methylcyclobutyl)-4H-1,2,4-triazol-3-yl)-1-methoxypropane-2-sulfonamide]	14
COc1ncnc(OC)c1-n1c(NS(=O)(=O)[C@@H](C)[C@H](OC)c2ncc(Cl)cn2)nnc1[C@@H]1CC[C@@H]1F (single isomer, unassigned) [Example 180.0, (1R,2S)-1-(5-chloropyrimidin-2-yl)-N-(4-(4,6-dimethoxypyrimidin-5-yl)-5-((1S,2S)-2-fluorocyclobutyl)-4H-1,2,4-triazol-3-yl)-1-methoxypropane-2-sulfonamide or (1R,2S)-1-(5-chloropyrimidin-2-yl)-N-(4-(4,6-dimethoxypyrimidin-5-yl)-5-((1R,2R)-2-fluorocyclobutyl)-4H-1,2,4-triazol-3-yl)-1-methoxypropane-2-sulfonamide]	24
COc1ncnc(OC)c1-n1c(NS(=O)(=O)[C@@H](C)[C@H](OC)c2ncc(Cl)cn2)nnc1C1CC(C)(C)C1 [Example 120.0]	3.1
COc1cccc(OC)c1-n1c(NS(=O)(=O)[C@@H](C)[C@@H](OC(C)C)c2ncc(C)cn2)nnc1[C@@H]1CCC[C@@H]1OC (single isomer, unassigned) [Example 233.0]	94
COc1cccc(OC)c1-n1c(NS(=O)(=O)[C@@H](C)[C@H](OC)c2ncc(Cl)cn2)nnc1[C@@H]1CC[C@H]1C (single isomer, unassigned) [Example 208.0]	2.7
COc1cccc(OC)c1-n1c(NS(=O)(=O)[C@@H](C)[C@H](C)c2ncc(C)cn2)nnc1C1(c2ccccn2)CC1 [Example 126.0]	4200
COc1ncnc(OC)c1-n1c(NS(=O)(=O)[C@@H](C)[C@H](OC)c2ncc(Cl)cn2)nnc1[C@H]1C[C@@H](C(F)(F)F)C1 (single isomer, unassigned) [Example 178.0, (1R,2S)-1-(5-chloropyrimidin-2-yl)-N-(4-(4,6-dimethoxypyrimidin-5-yl)-5-((1s,3R)-3-(trifluoromethyl)cyclobutyl)-4H-1,2,4-triazol-3-yl)-1-methoxypropane-2-sulfonamide or (1R,2S)-1-(5-chloropyrimidin-2-yl)-N-(4-(4,6-dimethoxypyrimidin-5-yl)-5-((1r,3S)-3-(trifluoromethyl)cyclobutyl)-4H-1,2,4-triazol-3-yl)-1-methoxypropane-2-sulfonamide]	6.5
COc1ncnc(OC)c1-n1c(NS(=O)(=O)[C@@H](C)[C@H](OC)c2ncc(Cl)cn2)nnc1[C@H]1C[C@H](C)C1 [Example 185.0, (1R,2S)-1-(5-chloro-2-pyrimidinyl)-N-(4-(4,6-dimethoxy-5-pyrimidinyl)-5-(trans-3-methylcyclobutyl)-4H-1,2,4-triazol-3-yl)-1-methoxy-2-propanesulfonamide]	2.7
COc1cccc(OC)c1-n1c(NS(=O)(=O)[C@@H](C)[C@H](C)c2cnc(C)cn2)nnc1C1CCC1 [Example 139.0]	29
COc1ncnc(OC)c1-n1c(NS(=O)(=O)[C@@H](C)[C@H](OC)c2ncc(Cl)cn2)nnc1C1CC2(COC2)C1 [Example 240.0, (1R,2S)-1-(5-chloro-2-pyrimidinyl)-N-(4-(4,6-dimethoxy-5-pyrimidinyl)-5-(2-oxaspiro[3.3]heptan-6-yl)-4H-1,2,4-triazol-3-yl)-1-methoxy-2-propanesulfonamide]	71
COc1cccc(OC)c1-n1c(NS(=O)(=O)[C@@H](C)[C@H](OC)c2ncc(Cl)cn2)nnc1[C@H]1C[C@H](C(F)(F)F)C1 (single isomer, unassigned) [Example 150.0, (1R,2S)-1-(5-chloropyrimidin-2-yl)-N-(4-(2,6-dimethoxyphenyl)-5-((1r,3S)-3-(trifluoromethyl)cyclobutyl)-4H-1,2,4-triazol-3-yl)-1-methoxypropane-2-sulfonamide or (1R,2S)-1-(5-chloropyrimidin-2-yl)-N-(4-(2,6-dimethoxyphenyl)-5-((1s,3R)-3-(trifluoromethyl)cyclobutyl)-4H-1,2,4-triazol-3-yl)-1-methoxypropane-2-sulfonamide]	6.8
COc1cccc(OC)c1-n1c(NS(=O)(=O)[C@@H](C)[C@H](OC)c2ncc(Cl)cn2)nnc1[C@H]1C[C@H](C(F)(F)F)C1 (single isomer, unassigned) [Example 149.0, (1R,2S)-1-(5-chloropyrimidin-2-yl)-N-(4-(2,6-dimethoxyphenyl)-5-((1r,3S)-3-(trifluoromethyl)cyclobutyl)-4H-1,2,4-triazol-3-yl)-1-methoxypropane-2-sulfonamide or (1R,2S)-1-(5-chloropyrimidin-2-yl)-N-(4-(2,6-dimethoxyphenyl)-5-((1s,3R)-3-(trifluoromethyl)cyclobutyl)-4H-1,2,4-triazol-3-yl)-1-methoxypropane-2-sulfonamide]	4.2
COc1cccc(OC)c1-n1c(NS(=O)(=O)CCc2ncc(Cl)cn2)nnc1C1CCC1 [Example 210.0, 2-(5-chloro-2-pyrimidin-yl)-N-(5-cyclobutyl-4-(2,6-dimethoxyphenyl)-4H-1,2,4-triazol-3-yl)ethanesulfonamide]	15
COCC1(n2c(NS(=O)(=O)[C@@H](C)[C@H](OC)c3ncc(Cl)cn3)nnc2[C@H]2C[C@H](CO)C2)CC1 (single isomer, unassigned) [Example 133.0, (1R,2S)-1-(5-chloro-2-pyriminidyl)-N-(5-(trans-3-(hydroxymethyl)cyclobutyl)-4-(1-(methoxymethyl)cyclopropyl)-4H-1,2,4-triazol-3-yl)-1-methoxy-2-propanesulfonamide or (1R,2S)-1-(5-chloro-2-pyrimidinyl)-N-(5-(cis-3-(hydroxymethyl)cyclobutyl)-4-(1-(methoxymethyl)cyclopropyl)-4H-1,2,4-triazol-3-yl)-1-methoxy-2-propanesulfonamide]	120
COc1cccc(OC)c1-n1c(NS(=O)(=O)[C@@H](C)[C@H](OC)c2ncc(Cl)cn2)nnc1[C@H]1CC(=O)C1(C)C (single isomer, unassigned) [Example 196.0, (1R,2S)-1-(5-chloropyrimidin-2-yl)-N-(4-(2,6-dimethoxyphenyl)-5-((R)-2,2-dimethyl-3-oxocyclobutyl)-4H-1,2,4-triazol-3-yl)-1-methoxypropane-2-sulfonamide or (1R,2S)-1-(5-chloropyrimidin-2-yl)-N-(4-(2,6-dimethoxyphenyl)-5-((S)-2,2-dimethyl-3-oxocyclobutyl)-4H-1,2,4-triazol-3-yl)-1-methoxypropane-2-sulfonamide]	330
